Reference: patent publication US11533913B2, “Treating water stress in plants” (Rothamsted Research Limited, priority 2015, dated 2022)

Tests used:
[1] = tested on: Spring wheat (Triticum aestivum Cadenza); test: Recovery response: regrowth (biomass) of water stressed wheat plants after re-watering; type: in vivo; conditions: 4-week-old wheat plants sprayed once with 30 mL of 1 mM after 9 days of drought; watering resumed 1 day after treatment
Protocol: (§1) Spring wheat (Triticum aestivum Cadenza) seeds were sown in Rothamsted Prescription Compost Mix (75% medium grade (L+P) peat, 12% screened sterilised loam, 3% medium grade vermiculite, 10% grit (lime-free), 3.5 kg Osmocote Exact 3-4 month/m^3 (Scott's UK Professional, Ipswich, Suffolk, www.scottinternational.com), 0.5 kg PG mix/m^3 (Hydro Agri Ltd., Immingham, UK), Wetting agent and Lime) and grown in controlled environment conditions with a photoperiod of 16 hours light, 8 hours dark, day/night temperatures of 20° C./16° C., photon flux density of 600 μmol m^−2 s^−1, and ambient relative humidity. Once the plants had reached Feekes stage 4, water was withheld for 10 days. On the 9th day, 30 ml 1 mM solutions of oNPE-T6P and DMNBT6P were applied to all above-ground biomass, on the 10th day the watering schedule was reinstated. Plants were harvested to measure biomass production every 5 days for 30 days after watering was reinstated. Both experiments were completed in replicates of 6.
(§2) Analysis of Variance (ANOVA) was applied to data to test for differences between treatments. A natural log transformation was used where necessary to ensure constant variance. The GENSTAT statistical system was used for this analysis (2011, 14th edition, ©VSN International Ltd, Hemel Hempstead, UK).
The effect of the signalling precursors upon plant resilience and recovery were tested. Drought is still the biggest global factor that limits crop yields, even in developed countries, such as the UK (Boyer, 1982, Science 218: 443-448).

[2] = tested on: Spring wheat (Triticum aestivum Cadenza); test: Resurrection response: regrowth of new tissue from plants cut back after drought treatment; type: in vivo; conditions: one application of 1 mM one day prior to re-watering, cut at 5 days after re-watering, left to regrow for 10 days
Protocol: as §1
as §2, with “UK). […]” for “UK).”

Row | SMILES | regrowth (recovery response) following resumption of watering [1] | regrowth (resurrection response) of new tissue from plants cut back after drought treatment [2]
1 | O=P(O)(O)OC[C@H]1O[C@H](O[C@H]2O[C@H](CO)[C@@H](O)[C@H](O)[C@H]2O)[C@H](O)[C@@H](O)[C@@H]1O [Compound T6P, trehalose 6-phosphate] | identical results to use of water alone | identical results to use of water alone
2 | COc1cc(COP(=O)(OCc2cc(OC)c(OC)cc2[N+](=O)[O-])OC[C@H]2O[C@H](O[C@H]3O[C@H](CO)[C@@H](O)[C@H](O)[C@H]3O)[C@H](O)[C@@H](O)[C@@H]2O)c([N+](=O)[O-])cc1OC [DMNB-T6P 2, 6-O-bis-(4,5-dimethoxy-2-nitrobenzyloxyphosphoryl)-D-trehalose] | the effects were dramatic | –
3 | CC(OP(=O)(OC[C@H]1O[C@H](O[C@H]2O[C@H](CO)[C@@H](O)[C@H](O)[C@H]2O)[C@H](O)[C@@H](O)[C@@H]1O)OC(C)c1ccccc1[N+](=O)[O-])c1ccccc1[N+](=O)[O-] (stereo partly drawn) [oNPE-T6P 3, 6-O-bis[1-(2-nitrophenyl)-ethoxyphosphoryl]-D-trehalose] | the effects were dramatic | –
